For this test, the target named is T1, Guanine deaminase (GDA) (Homo sapiens, UniProt Q9Y2T3).
T1 sequence (Q9Y2T3 1-454): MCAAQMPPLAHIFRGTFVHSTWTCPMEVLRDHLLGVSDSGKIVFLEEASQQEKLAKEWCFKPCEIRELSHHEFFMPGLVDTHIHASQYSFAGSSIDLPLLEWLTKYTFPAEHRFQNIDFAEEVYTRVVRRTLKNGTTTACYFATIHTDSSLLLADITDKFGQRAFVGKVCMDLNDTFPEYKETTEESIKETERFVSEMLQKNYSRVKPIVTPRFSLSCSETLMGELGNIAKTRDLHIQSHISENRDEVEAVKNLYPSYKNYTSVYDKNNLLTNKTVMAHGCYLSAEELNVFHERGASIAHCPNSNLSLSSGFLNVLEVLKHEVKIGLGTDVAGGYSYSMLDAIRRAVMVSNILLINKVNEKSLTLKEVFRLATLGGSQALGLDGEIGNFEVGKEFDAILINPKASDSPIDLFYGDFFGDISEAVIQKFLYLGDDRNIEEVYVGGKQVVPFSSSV
Nature of the test: real-time fluorescence inhibition assay with tzGN as substrate. In kind it is biochemical.
One may read the IC50 as the concentration at which inhibition is half-maximal. `NC(=O)c1[nH]cnc1N` [AICA, 5-aminoimidazole-4-carboxamide] registered an IC50 of 100 µM. As to `NC(=O)c1nscc1N` [ATCA, 4-aminoisothiazole-3-carboxamide], the IC50 stood at 80 µM. The IC50 values of the last two compounds are within 1.5-fold of each other. As for `O=C(O)c1c[nH]cn1` [ICA, 4-imidazolecarboxylic acid], the figure is 2000 µM.

(Values after article PMC9109600 (ACS chemical biology, 2021).)
